Measurements reported in US8871753B2, “Macrocyclic compounds and their use as kinase inhibitors” (Incyte Corporation, priority 2008, dated 2014).
Where a name gives a salt, the structure may show the parent alone.

Columns and labels:
Type in all cases: biochemical
[1] = biological target: T1, human JAK2 (a.a. 828-1132) (Homo sapiens, UniProt O60674); test: In vitro JAK kinase assay (HTRF, phosphorylation of a biotinylated peptide), JAK2; settings: Table B1
T1 construct: JAK2 (a.a. 828-1132); His tag (N); made in house; host or cells: insect cells (baculovirus)
T1 sequence (O60674 828-1132): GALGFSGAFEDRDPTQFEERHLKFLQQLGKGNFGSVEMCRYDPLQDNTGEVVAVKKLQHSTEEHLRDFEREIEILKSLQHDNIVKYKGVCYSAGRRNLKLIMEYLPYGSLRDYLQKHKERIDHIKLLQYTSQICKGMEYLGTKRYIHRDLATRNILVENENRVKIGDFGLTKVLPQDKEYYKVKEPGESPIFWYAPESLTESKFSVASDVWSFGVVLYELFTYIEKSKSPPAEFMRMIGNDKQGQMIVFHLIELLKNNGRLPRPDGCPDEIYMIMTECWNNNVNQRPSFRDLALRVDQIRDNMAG
Procedure, shortened: (§1)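 Phosphorylation of a biotinylated peptide by the JAK kinase domain, detected by HTRF with Eu-Py20 and SA-APC. ATP was 90 μM for JAK1, 30 μM for JAK2 and 3 μM for JAK3. Reactions ran 1 h at room temperature and were stopped with EDTA, followed by 40 min antibody binding.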

[2] = biological target: T2, human JAK3 (a.a. 781-1124) (Homo sapiens, UniProt P52333); test: In vitro JAK kinase assay (HTRF, phosphorylation of a biotinylated peptide), JAK3; settings: Table B1
T2 construct: JAK3 (a.a. 781-1124); His tag (N); made in house; host or cells: insect cells (baculovirus)
T2 sequence (P52333 781-1124): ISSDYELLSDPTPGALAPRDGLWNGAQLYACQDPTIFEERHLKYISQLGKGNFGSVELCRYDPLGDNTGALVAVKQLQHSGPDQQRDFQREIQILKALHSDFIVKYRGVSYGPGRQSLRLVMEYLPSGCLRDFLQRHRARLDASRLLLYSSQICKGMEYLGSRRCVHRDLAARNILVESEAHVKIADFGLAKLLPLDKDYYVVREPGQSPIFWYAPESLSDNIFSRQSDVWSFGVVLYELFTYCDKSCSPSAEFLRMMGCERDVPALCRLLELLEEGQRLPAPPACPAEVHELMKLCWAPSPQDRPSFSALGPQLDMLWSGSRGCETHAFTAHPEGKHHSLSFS
Procedure, shortened: as §1

TYK2 = TYK2 (Homo sapiens, UniProt P29597); test: TYK2 kinase inhibition (Table A1); settings: Table B1
TYK2, sequence (P29597 whole entry): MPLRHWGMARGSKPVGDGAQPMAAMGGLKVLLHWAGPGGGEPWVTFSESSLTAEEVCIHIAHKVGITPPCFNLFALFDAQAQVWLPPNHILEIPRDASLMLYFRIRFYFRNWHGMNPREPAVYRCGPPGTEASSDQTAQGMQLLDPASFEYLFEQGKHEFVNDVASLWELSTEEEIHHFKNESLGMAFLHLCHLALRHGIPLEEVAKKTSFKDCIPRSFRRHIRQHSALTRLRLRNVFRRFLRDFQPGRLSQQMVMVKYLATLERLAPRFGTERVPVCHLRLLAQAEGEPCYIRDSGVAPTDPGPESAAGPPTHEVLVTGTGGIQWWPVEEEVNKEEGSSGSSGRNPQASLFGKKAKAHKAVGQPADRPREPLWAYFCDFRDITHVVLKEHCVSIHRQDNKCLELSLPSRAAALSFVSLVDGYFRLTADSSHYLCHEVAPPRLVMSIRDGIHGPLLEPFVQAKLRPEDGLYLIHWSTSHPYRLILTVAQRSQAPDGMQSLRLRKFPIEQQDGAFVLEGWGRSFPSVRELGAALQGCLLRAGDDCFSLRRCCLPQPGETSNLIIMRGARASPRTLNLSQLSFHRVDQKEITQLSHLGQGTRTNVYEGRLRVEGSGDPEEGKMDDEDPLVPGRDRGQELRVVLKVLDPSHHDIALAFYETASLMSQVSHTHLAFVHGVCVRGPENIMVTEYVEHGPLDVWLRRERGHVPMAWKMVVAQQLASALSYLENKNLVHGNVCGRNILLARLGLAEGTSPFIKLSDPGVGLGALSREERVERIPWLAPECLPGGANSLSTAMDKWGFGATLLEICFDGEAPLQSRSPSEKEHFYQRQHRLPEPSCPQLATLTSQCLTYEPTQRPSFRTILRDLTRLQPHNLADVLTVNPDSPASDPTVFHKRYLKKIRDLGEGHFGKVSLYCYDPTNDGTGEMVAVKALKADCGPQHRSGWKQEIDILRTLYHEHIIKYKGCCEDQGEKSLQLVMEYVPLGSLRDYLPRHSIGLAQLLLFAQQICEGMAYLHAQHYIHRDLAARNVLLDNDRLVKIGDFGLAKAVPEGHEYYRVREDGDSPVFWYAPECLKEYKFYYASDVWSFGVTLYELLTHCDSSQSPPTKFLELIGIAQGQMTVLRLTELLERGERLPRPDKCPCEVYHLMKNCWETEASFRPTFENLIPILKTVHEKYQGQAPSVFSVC

[3] = biological target: T3, Recombinant Human Anaplastic Lymphoma Kinase (Homo sapiens, UniProt Q9UM73); test: ALK HTRF kinase assay; settings: compound at a concentration of 500 nM or 1 mM (not specified); cells shown as percentage
T3 construct: purchased Invitrogen, Carlsbad, Calif
T3 sequence (Q9UM73 19-1620): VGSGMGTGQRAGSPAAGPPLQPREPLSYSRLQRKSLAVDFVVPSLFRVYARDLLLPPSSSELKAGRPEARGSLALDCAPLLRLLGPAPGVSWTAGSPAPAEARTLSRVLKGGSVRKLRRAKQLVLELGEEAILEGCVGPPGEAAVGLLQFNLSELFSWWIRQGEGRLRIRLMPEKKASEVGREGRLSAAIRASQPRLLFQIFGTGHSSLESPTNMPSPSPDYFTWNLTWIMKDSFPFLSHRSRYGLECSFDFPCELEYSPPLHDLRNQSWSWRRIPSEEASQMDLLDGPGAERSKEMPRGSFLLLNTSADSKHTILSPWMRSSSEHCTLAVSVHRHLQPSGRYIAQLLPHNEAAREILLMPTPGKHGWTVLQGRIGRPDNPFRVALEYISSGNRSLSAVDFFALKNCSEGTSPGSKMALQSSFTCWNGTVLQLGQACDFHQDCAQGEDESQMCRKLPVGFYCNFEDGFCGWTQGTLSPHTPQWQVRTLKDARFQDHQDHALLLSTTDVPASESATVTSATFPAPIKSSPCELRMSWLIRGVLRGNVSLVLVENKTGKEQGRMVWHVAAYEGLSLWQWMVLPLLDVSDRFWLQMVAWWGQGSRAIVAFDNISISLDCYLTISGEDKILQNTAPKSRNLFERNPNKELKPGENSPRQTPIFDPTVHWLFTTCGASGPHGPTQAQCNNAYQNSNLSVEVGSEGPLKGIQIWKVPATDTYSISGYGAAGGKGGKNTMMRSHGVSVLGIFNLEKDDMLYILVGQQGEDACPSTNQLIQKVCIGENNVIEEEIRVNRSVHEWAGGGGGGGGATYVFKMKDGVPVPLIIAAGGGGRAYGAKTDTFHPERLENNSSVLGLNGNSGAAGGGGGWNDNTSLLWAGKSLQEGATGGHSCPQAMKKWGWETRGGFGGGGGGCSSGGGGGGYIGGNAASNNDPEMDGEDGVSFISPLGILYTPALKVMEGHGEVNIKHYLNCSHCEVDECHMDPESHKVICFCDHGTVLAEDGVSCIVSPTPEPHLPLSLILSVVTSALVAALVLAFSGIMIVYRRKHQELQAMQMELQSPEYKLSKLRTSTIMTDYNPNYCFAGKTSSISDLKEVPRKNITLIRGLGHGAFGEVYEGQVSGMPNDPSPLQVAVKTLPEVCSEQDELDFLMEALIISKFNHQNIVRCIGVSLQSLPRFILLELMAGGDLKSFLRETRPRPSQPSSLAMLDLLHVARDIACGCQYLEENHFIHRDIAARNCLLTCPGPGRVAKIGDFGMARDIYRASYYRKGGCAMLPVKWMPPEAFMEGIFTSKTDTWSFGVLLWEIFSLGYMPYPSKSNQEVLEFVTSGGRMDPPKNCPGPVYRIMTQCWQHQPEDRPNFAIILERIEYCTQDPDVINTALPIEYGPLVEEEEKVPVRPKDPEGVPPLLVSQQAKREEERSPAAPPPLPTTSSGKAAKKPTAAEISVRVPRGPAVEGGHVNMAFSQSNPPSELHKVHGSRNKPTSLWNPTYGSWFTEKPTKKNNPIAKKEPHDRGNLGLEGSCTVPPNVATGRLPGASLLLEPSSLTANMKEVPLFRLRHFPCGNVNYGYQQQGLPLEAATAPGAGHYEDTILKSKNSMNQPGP
Procedure, shortened: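 Readout was HTRF between a Eu-W1024 anti-phosphotyrosine antibody and streptavidin-APC bound to biotinylated peptide phosphorylated by recombinant human ALK. IC50 values came from a four-parameter logistic fit.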

[4] = biological target: T4, human JAK1 (a.a. 837-1142) (Homo sapiens, UniProt P23458); test: In vitro JAK kinase assay (HTRF, phosphorylation of a biotinylated peptide), JAK1; settings: Table B1; read-out: JAK1 IC50
T4 construct: human JAK1 (a.a. 837-1142); His tag (N); made in house; host or cells: insect cells (baculovirus)
T4 sequence (P23458 849-1154): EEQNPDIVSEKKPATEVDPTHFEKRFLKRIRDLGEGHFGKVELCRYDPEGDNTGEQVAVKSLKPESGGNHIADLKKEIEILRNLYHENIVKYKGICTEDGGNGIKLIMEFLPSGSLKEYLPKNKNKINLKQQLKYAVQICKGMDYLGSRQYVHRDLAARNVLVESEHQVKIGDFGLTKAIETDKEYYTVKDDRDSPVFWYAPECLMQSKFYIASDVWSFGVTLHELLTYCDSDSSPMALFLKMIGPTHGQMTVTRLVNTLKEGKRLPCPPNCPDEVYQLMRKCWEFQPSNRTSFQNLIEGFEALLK
Procedure, shortened: as §1

SMILES | IC50 [1] [nM] | IC50 [2] [nM] | IC50 (TYK2) [nM] | ALK % of inhibition at a concentration of 500 nM or 1 mM [3] [%] | IC50 [4] [nM]
O=C(Nc1ccc2cc1CCc1cccc(c1)Nc1ncc(Cl)c(n1)N2)N[C@H]1CCN(C(=O)c2ccncc2)C1 [Example B234, N-[6-Chloro-2,4,8,22-tetraazatetracyclo[14.3.1.1(3,7).1(9,13)]docosa-1(20),3(22),4,6,9(21),10,12,16,18-nonaen-12-yl]-N′-[(3S)-1-isonicotinoylpyrrolidin-3-yl]urea bis(trifluoroacetate)] | 6.5 | 40 | 11 | 31 | 4
N#Cc1ccc(C(=O)N2CC[C@H](NC(=O)Nc3ccc4cc3CCc3cccc(c3)Nc3ncc(Cl)c(n3)N4)C2)cc1 [Example B235, N-[6-Chloro-2,4,8,22-tetraazatetracyclo[14.3.1.1(3,7).1(9,13)]docosa-1(20),3(22),4,6,9(21),10,12,16,18-nonaen-12-yl]-N′-[(3S)-1-(4-cyanobenzoyl)pyrrolidin-3-yl]urea trifluoroacetate] | 21 | 213 | 36 | 7.3 | 6
CC(C)(C)OC(=O)N[C@@H]1CCN(C(=O)Nc2ccc3cc2CCc2cccc(c2)Nc2ncc(Cl)c(n2)N3)C1 [Example B236, tert-Butyl [(3R)-1-({[6-chloro-2,4,8,22-tetraazatetracyclo[14.3.1.1(3,7).1(9,13)]docosa-1(20),3(22),4,6,9(21),10,12,16,18-nonaen-12-yl]amino}carbonyl)pyrrolidin-3-yl]carbamate] | 1.7 | 9.7 | 6.1 | 29 | 1.7
CC(C)(C)OC(=O)N1CCCC(NC(=O)Nc2ccc3cc2CCc2cccc(c2)Nc2ncc(Cl)c(n2)N3)C1 (stereo not drawn) [Example B237, tert-Butyl 3-[({[6-chloro-2,4,8,22-tetraazatetracyclo[14.3.1.1(3,7).1(9,13)]docosa-1(20),3(22),4,6,9(21),10,12,16,18-nonaen-12-yl]amino}carbonyl)amino]piperidine-1-carboxylate] | 18 | 122 | 16 | 6.2 | 7.9
O=C(Nc1ccc2cc1CCc1cccc(c1)Nc1ncc(Cl)c(n1)N2)NC1CCCNC1 (stereo not drawn) [Example B238, N-[6-Chloro-2,4,8,22-tetraazatetracyclo[14.3.1.1(3,7).1(9,13)]docosa-1(20),3(22),4,6,9(21),10,12,16,18-nonaen-12-yl]-N′-piperidin-3-ylurea bis(trifluoroacetate)] | 17 | 274 | 50 | 15 | 8.1
CN(C)C(=O)Nc1ccc2cc1CCc1cccc(c1)Nc1ncc(Cl)c(n1)N2 [Example B239, N′-[6-Chloro-2,4,8,22-tetraazatetracyclo[14.3.1.1(3,7).1(9,13)]docosa-1(20),3(22),4,6,9(21),10,12,16,18-nonaen-12-yl]-N,N-dimethylurea trifluoroacetate] | 8.9 | 35 | 24 | 21 | 6.4
O=C(Nc1ccc2cc1CCc1cccc(c1)Nc1ncc(Cl)c(n1)N2)NC1CC1 [Example B240, N-[6-Chloro-2,4,8,22-tetraazatetracyclo[14.3.1.1(3,7).1(9,13)]docosa-1(20),3(22),4,6,9(21),10,12,16,18-nonaen-12-yl]-N′-cyclopropylurea trifluoroacetate] | 0.74 | 10 | 4 | 15 | 1.5
O=C(NCCO)Nc1ccc2cc1CCc1cccc(c1)Nc1ncc(Cl)c(n1)N2 [Example B241, N-[6-Chloro-2,4,8,22-tetraazatetracyclo[14.3.1.1(3,7).1(9,13)]docosa-1(20),3(22),4,6,9(21),10,12,16,18-nonaen-12-yl]-N′-(2-hydroxyethyl)urea trifluoroacetate] | 1.5 | 10 | 3.5 | 22 | 1.1
CC(CO)NC(=O)Nc1ccc2cc1CCc1cccc(c1)Nc1ncc(Cl)c(n1)N2 (stereo not drawn) [Example B242, N-[6-Chloro-2,4,8,22-tetraazatetracyclo[14.3.1.1(3,7).1(9,13)]docosa-1(20),3(22),4,6,9(21),10,12,16,18-nonaen-12-yl]-N′-(2-hydroxy-1-methylethyl)urea trifluoroacetate] | 2 | 12 | 6.9 | 16 | 2.8
COCCNC(=O)Nc1ccc2cc1CCc1cccc(c1)Nc1ncc(Cl)c(n1)N2 [Example B243, N-[6-Chloro-2,4,8,22-tetraazatetracyclo[14.3.1.1(3,7).1(9,13)]docosa-1(20),3(22),4,6,9(21),10,12,16,18-nonaen-12-yl]-N′-(2-methoxyethyl)urea trifluoroacetate] | 1.5 | 16 | 3.1 | 14 | 0.92
O=C(Nc1nc[nH]n1)Nc1ccc2cc1CCc1cccc(c1)Nc1ncc(Cl)c(n1)N2 [Example B244, N-[6-Chloro-2,4,8,22-tetraazatetracyclo[14.3.1.1(3,7).1(9,13)]docosa-1(20),3(22),4,6,9(21),10,12,16,18-nonaen-12-yl]-N′-1H-1,2,4-triazol-3-ylurea trifluoroacetate] | 19 | 2.6 | 1.6 | 63 | 9.2
O=C(Nc1nccs1)Nc1ccc2cc1CCc1cccc(c1)Nc1ncc(Cl)c(n1)N2 [Example B245, N-[6-Chloro-2,4,8,22-tetraazatetracyclo[14.3.1.1(3,7).1(9,13)]docosa-1(20),3(22),4,6,9(21),10,12,16,18-nonaen-12-yl]-N′-1,3-thiazol-2-ylurea trifluoroacetate] | 78 | 20 | 8.5 | 41 | 17
O=C(NCc1ccncc1)Nc1ccc2cc1CCc1cccc(c1)Nc1ncc(Cl)c(n1)N2 [Example B246, N-[6-Chloro-2,4,8,22-tetraazatetracyclo[14.3.1.1(3,7).1(9,13)]docosa-1(20),3(22),4,6,9(21),10,12,16,18-nonaen-12-yl]-N′-(pyridin-4-ylmethyl)ureabis(trifluoroacetate)] | 25 | 21 | 3.4 | 23 | 12
COCC(C)NC(=O)Nc1ccc2cc1CCc1cccc(c1)Nc1ncc(Cl)c(n1)N2 (stereo not drawn) [Example B247, N-[6-Chloro-2,4,8,22-tetraazatetracyclo[14.3.1.1(3,7).1(9,13)]docosa-1(20),3(22),4,6,9(21),10,12,16,18-nonaen-12-yl]-N′-(2-methoxy-1-methylethyl)ureatrifluoroacetate] | 4 | 73 | 20 | 7.5 | 6.5
Cc1cnc(NC(=O)Nc2ccc3cc2CCc2cccc(c2)Nc2ncc(Cl)c(n2)N3)s1 [Example B248, N-[6-Chloro-2,4,8,22-tetraazatetracyclo[14.3.1.1(3,7).1(9,13)]docosa-1(20),3(22),4,6,9(21),10,12,16,18-nonaen-12-yl]-N′-(5-methyl-1,3-thiazol-2-yl)urea trifluoroacetate] | 171 | 46 | 25 | 32 | 77
Cc1csc(NC(=O)Nc2ccc3cc2CCc2cccc(c2)Nc2ncc(Cl)c(n2)N3)n1 [Example B249, N-[6-Chloro-2,4,8,22-tetraazatetracyclo[14.3.1.1(3,7).1(9,13)]docosa-1(20),3(22),4,6,9(21),10,12,16,18-nonaen-12-yl]-N′-(4-methyl-1,3-thiazol-2-yl)ureatrifluoroacetate] | 8.6 | 103 | 30 | 35 | 6
O=C(Nc1nc(C(=O)O)cs1)Nc1ccc2cc1CCc1cccc(c1)Nc1ncc(Cl)c(n1)N2 [Example B250, 2-[({[6-Chloro-2,4,8,22-tetraazatetracyclo[14.3.1.1(3,7).1(9,13)]docosa-1(20),3(22),4,6,9(21),10,12,16,18-nonaen-12-yl]amino}carbonyl)amino]-1,3-thiazole-4-carboxylic acid trifluoroacetate] | 28 | 6.3 | 5.5 | 66 | 28
O=C(Nc1nnn[nH]1)Nc1ccc2cc1CCc1cccc(c1)Nc1ncc(Cl)c(n1)N2 [Example B251, N-[6-Chloro-2,4,8,22-tetraazatetracyclo[14.3.1.1(3,7).1(9,13)]docosa-1(20),3(22),4,6,9(21),10,12,16,18-nonaen-12-yl]-N′-1H-tetrazol-5-ylurea trifluoroacetate] | 37 | 4.2 | 14 | 44 | 53
